# Source: publication PMC8880268, “Magnolol and Luteolin Inhibition of α-Glucosidase Activity: Kinetics and Type of Interaction Detected by In Vitro and In Silico Studies” (Pharmaceuticals, 2022)
# Several values for one entry are separate records, joined by “and”; a condition that tells them apart may be missing. Identical values can stand only once. Entries after “also recorded” stand apart in the source; their conditions may differ. Like-named read-outs stand apart in the source and are kept apart here.
# What was measured:
# α-glucosidase [1] = biological target: T1, α-glucosidase (Saccharomyces cerevisiae, UniProt P38158); parameters: method as in PMID 24333230; conditions: ref 17; cited from earlier work
# T1 construct: purchased Merck KGaA, Darmstadt, Germany
# T1 sequence (P38158 whole entry): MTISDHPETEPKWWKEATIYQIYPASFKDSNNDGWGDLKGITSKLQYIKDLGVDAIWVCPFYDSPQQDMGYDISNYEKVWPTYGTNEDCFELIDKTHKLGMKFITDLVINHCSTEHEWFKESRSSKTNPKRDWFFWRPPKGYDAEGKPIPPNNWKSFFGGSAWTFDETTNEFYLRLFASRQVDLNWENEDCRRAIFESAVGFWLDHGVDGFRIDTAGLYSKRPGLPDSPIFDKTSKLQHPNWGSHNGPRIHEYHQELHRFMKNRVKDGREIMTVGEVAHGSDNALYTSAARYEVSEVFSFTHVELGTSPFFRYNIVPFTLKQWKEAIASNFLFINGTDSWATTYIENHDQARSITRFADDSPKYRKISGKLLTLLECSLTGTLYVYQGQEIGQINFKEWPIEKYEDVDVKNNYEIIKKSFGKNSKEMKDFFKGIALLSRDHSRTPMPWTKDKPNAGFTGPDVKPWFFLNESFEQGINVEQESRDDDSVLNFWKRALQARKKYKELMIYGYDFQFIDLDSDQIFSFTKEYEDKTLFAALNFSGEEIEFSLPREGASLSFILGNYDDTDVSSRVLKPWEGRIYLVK
# α-glucosidase [2] = biological target: T1, α-glucosidase; assay: Inactivation kinetics, time course of α-glucosidase activity; assay type: biochemical; conditions: enzyme 0.075 µM, pNPG 2 mM
# Description: The enzyme and substrate concentrations were 0.075 µM and 2 mM, respectively.
# α-glucosidase [3] = biological target: T1, α-glucosidase; assay: Kinetic analysis of yeast α-glucosidase inhibition (Michaelis–Menten and Lineweaver–Burk plots); assay type: biochemical; conditions: for Inhibitor Potency (relative to acarbose): from Ki values; for Vmax of α-glucosidase: converted using the Lambert–Beer relationship
# Description: The type of enzyme inhibition exerted by inhibitors was evaluated from kinetic studies using different substrate concentrations (0.25–2.5 mM pNPG) applying Michaelis–Menten and Lineweaver–Burk plots. Inhibition constants (Ki) were determined by plots of the Y-intercept of the Lineweaver–Burk plot vs. inhibitor concentration.
# α-glucosidase [4] = biological target: T1, α-glucosidase; assay: Synchronous fluorescence spectra; conditions: pH 6.8, 298 K
# From the text: The application of this method allows the identification of conformational changes in proteins according to the spectroscopic behavior of the tyrosine and tryptophan residues. Synchronous fluorescence spectra were collected in the emission range of 260–320 nm. The difference between excitation and emission wavelength (Δλ) was established at 15 nm (tyrosine residues) or at 60 nm (tryptophan residues).
# α-glucosidase [5] = biological target: T1, α-glucosidase; assay: Yeast α-glucosidase inhibitory assay (pNPG substrate, absorbance 405 nm); assay type: biochemical; conditions: for IC50: 2 mM pNPG
# Description: α-Glucosidase inhibitory activity was determined according to a previous method. Briefly, 0.1 mM PBS (pH 6.8) was used to dissolve α-glucosidase and pNPG. In detail, 80 μL of PBS or 80 μL of test sample were added to 96-well plates. Successively, 20 μL of enzyme (0.025–0.125 µM) were added to each well. Magnolol (10–100 μM) and luteolin (5–50 μM) were prepared in DMSO (<1% v/v). […] Each sample was incubated with α-glucosidase for 10 min at 37 °C. The reaction started by adding 200 μL of pNPG (2 mM). The absorbance values were detected at 405 nm for 60 min, using a PerkinElmer Victor Nivo microplate spectrophotometer (Waltham, MA, USA). The α-glucosidase activity in the absence of inhibitors was defined as 100%. The half-maximal inhibitory concentration (IC50) was estimated by plot of relative enzymatic activity vs. inhibitor concentration.
# α-glucosidase [6] = biological target: T1, α-glucosidase; assay: Fluorescence quenching analysis and thermodynamic parameters; assay type: binding; conditions: for Ksv (Stern–Volmer quenching constant): pH 6.8, α-glucosidase 0.35 µM; for Kd: read-out: Ka (binding constant) (converted)
# Description: The interaction of inhibitors with α-glucosidase was studied using the fluorescence quenching method. […] Measurements were made in the emission range of 300–450 nm, with an excitation of 280 nm, after 10 min of stabilization. The fluorescent spectra of α-glucosidase (0.35 µM) and each inhibitor (0–1.0 µM) were carried out at three different temperatures (298, 304, and 310 K) and the bandwidths were set at 5 nm for both emission and excitation slits. For each sample, three fluorescence spectra were acquired, and the blank was subtracted. The compound quenching mechanism was assessed using the Stern–Volmer equation: F0 / F = 1 + Ksv[Q] = 1 + Kq^.τo[Q], where F0 and F are the fluorescence measure in absence and in presence of different concentrations of quencher, respectively; Ksv is the Stern–Volmer quenching constant; Kq is the coefficient of quencher rate coefficient; τ0 is the life time of the excited state; and [Q] is the concentration of the quencher.
# Further elaboration of the equilibrium within the free and bound molecules can be achieved through the analysis of the fluorescence emission data utilizing the following equation: log (F0 − F) / F = log Ka + n log [Q], which obtains the binding constant (Ka) and the number of binding sites per protein (n) for the enzyme-inhibitor system.
# Thermodynamic spontaneity is an important factor in the study of protein-ligand interaction. A system tends not only toward a lower energy state (enthalpy, ΔH), but also according to a state of disorder (entropy, ΔS). Thermodynamic parameters were obtained according to the Van ’t Hoff equation and the plot of “log Ka vs. 1/T”. The trade-off between enthalpy (ΔH°) and entropy (ΔS°) is used to obtain the standard free energy variation (ΔG°).
# α-glucosidase [7] = conditions: cited from earlier work
# [8] = 298–310 K, Van ’t Hoff equation
compound,measurement,setting,value
"O=c1cc(-c2ccc(O)c(O)c2)oc2cc(O)cc(O)c12 [Luteolin, 3’,4’,5,7-tetrahydroxyflavone]",distance between inhibitor and α-glucosidase,α-glucosidase [1],4.56 nm
same,Inactivation rate constant K,α-glucosidase [2]; inhibitor 5 µM,2.67 ± 0.08 10^−4 s^−1
same,Inactivation rate constant K,α-glucosidase [2]; inhibitor 10 µM,2.78 ± 0.08 10^−4 s^−1
same,Inactivation rate constant K,α-glucosidase [2]; inhibitor 25 µM,2.81 ± 0.03 10^−4 s^−1
same,Inactivation rate constant K,α-glucosidase [2]; inhibitor 40 µM,2.82 ± 0.04 10^−4 s^−1
same,Inactivation rate constant K,α-glucosidase [2]; inhibitor 50 µM,2.84 ± 0.01 10^−4 s^−1
same,Ki’ (binding constant of the inhibitor to the substrate-enzyme complex),α-glucosidase [3]; 0.075 µM α-glucosidase,35.4 µM
same,Ki,"α-glucosidase [3]; 0.075 µM α-glucosidase, secondary plots of slope versus [I], read-out: Ki (binding constant of the inhibitor to the free enzyme)",34.2 µM
same,type of inhibition,α-glucosidase [3]; Michaelis–Menten and Lineweaver–Burk plots,non-competitive inhibition; also recorded: non-competitive reversible inhibitor
same,Inhibitor Potency (relative to acarbose),α-glucosidase [3],10.4
same,Inhibitor Potency (relative to acarbose),α-glucosidase [3]; listed as luteolin,≥ 10
same,Kcat of α-glucosidase,"α-glucosidase [3]; inhibitor 5 µM, 0.075 µM α-glucosidase",2.95 ± 0.12 s⁻¹
same,Kcat of α-glucosidase,"α-glucosidase [3]; inhibitor 10 µM, 0.075 µM α-glucosidase",2.65 ± 0.13 s⁻¹
same,Kcat of α-glucosidase,"α-glucosidase [3]; inhibitor 25 µM, 0.075 µM α-glucosidase",2.02 ± 0.12 s⁻¹
same,Vmax of α-glucosidase,α-glucosidase [3]; inhibitor 25 µM,9.10 ± 0.50 µM/min
same,Kcat of α-glucosidase,"α-glucosidase [3]; inhibitor 40 µM, 0.075 µM α-glucosidase",1.78 ± 0.12 s⁻¹
same,Vmax of α-glucosidase,α-glucosidase [3]; inhibitor 40 µM,8.00 ± 0.50 µM/min
same,Kcat of α-glucosidase,"α-glucosidase [3]; inhibitor 50 µM, 0.075 µM α-glucosidase",1.41 ± 0.11 s⁻¹
same,Vmax of α-glucosidase,α-glucosidase [3]; inhibitor 50 µM,6.34 ± 0.60 µM/min
same,shift of synchronous fluorescence maximum,α-glucosidase [4]; ∆λ = 15 nm (tyrosine residues),blue shift from 286 to 283
same,shift of synchronous fluorescence maximum,α-glucosidase [4]; ∆λ = 60 nm (tryptophan residues),no modification
same,reversibility of inhibition,α-glucosidase [5]; plots v vs. [α-glucosidase] at different inhibitor concentrations,reversible inhibition
same,IC50,"α-glucosidase [5]; α-glucosidase 0.025 × 10^−6 M, read-out: IC50",14 ± 10.5 µM
same,IC50,"α-glucosidase [5]; α-glucosidase 0.05 × 10^−6 M, read-out: IC50",21.6 ± 11.7 µM
same,IC50,"α-glucosidase [5]; α-glucosidase 0.05 × 10^−6 M, read-out: −Log IC50 (converted)",21.9 µM
same,IC50,"α-glucosidase [5]; α-glucosidase 0.075 × 10^−6 M, read-out: IC50",32.3 ± 11.7 µM
same,IC50,"α-glucosidase [5]; α-glucosidase 0.125 × 10^−6 M, read-out: IC50",59.4 ± 12.3 µM
same,Kq (bimolecular quenching constant),α-glucosidase [6]; 298 K,23.22 ± 0.159 10^13 M^−1 s^−1
same,n (number of binding sites),α-glucosidase [6]; 298 K,1.10
same,ΔG° (free energy change),"α-glucosidase [6]; 298 K, Van ’t Hoff equation",-0.547 kcal/mol
same,Ksv (Stern–Volmer quenching constant),α-glucosidase [6]; 298 K,23.22 ± 0.16 10^5 M^−1
same,Kd,α-glucosidase [6]; 298 K,0.402 µM
same,ΔH° (enthalpy change),α-glucosidase [6]; [8],-2.18 kcal/mol
same,∆S° (entropy change),α-glucosidase [6]; [8],−22.95 J mol^−1K^−1
same,Kq (bimolecular quenching constant),α-glucosidase [6]; 304 K,21.73 ± 0.141 10^13 M^−1 s^−1
same,n (number of binding sites),α-glucosidase [6]; 304 K,1.28
same,ΔG° (free energy change),"α-glucosidase [6]; 304 K, Van ’t Hoff equation",-0.514 kcal/mol
same,Ksv (Stern–Volmer quenching constant),α-glucosidase [6]; 304 K,21.73 ± 0.14 10^5 M^−1
same,Kd,α-glucosidase [6]; 304 K,0.417 µM
same,Kq (bimolecular quenching constant),α-glucosidase [6]; 310 K,18.68 ± 0.120 10^13 M^−1 s^−1
same,n (number of binding sites),α-glucosidase [6]; 310 K,1.34
same,ΔG° (free energy change),"α-glucosidase [6]; 310 K, Van ’t Hoff equation",-0.48 kcal/mol
same,Ksv (Stern–Volmer quenching constant),α-glucosidase [6]; 310 K,18.68 ± 0.12 10^5 M^−1
same,Kd,α-glucosidase [6]; 310 K,0.464 µM
same,fluorescence quenching mechanism,α-glucosidase [6]; based on Ksv and Kq values,static quenching mechanism
same,number of binding sites,α-glucosidase [6]; no temperature stated,approximately 1
same,times more potent than acarbose,"α-glucosidase [7]; first of 'respectively', from literature IC50 values ref 18",13 times
same,Ki,α-glucosidase [7]; ref 4,29 µM and 38 µM
same,IC50,α-glucosidase [7]; ref 6,46 µM
same,Ki,α-glucosidase [7]; ref 17,140 µM
same,IC50,α-glucosidase [7]; ref 18,13.1 µM
same,times more potent than acarbose,"α-glucosidase [7]; second of 'respectively', from literature IC50 values ref 6",17 times
